{"source": "patent US9907860B2", "about": "“Conjugated molecules comprising a peptide derived from the CD4 receptor coupled to an anionic polypeptide for the treatment of AIDS” (INSTITUT PASTEUR, priority 2014, dated 2018)", "key": {"[1]": {"tested_on": "SHIV162p3 viral strain (B-R5)", "experiment": "Antiviral activity on TZM-bl cells, SHIV162p3 strain", "assay_type": "cell-based", "settings": "luciferase, 48 h, clade-tropism B-R5", "protocol": "(§1) The antiviral activity of the tested compounds was determined by pre-incubating 10^4 TZM-bl cells/well in a 96-well plate for 30 min at 37° C. and 5% CO2 with or without a serial dilution of the compound. Next, 200 TCID50 of viruses were added to each well and cultures were incubated for 48 h before luciferase activity was quantified. Each compound was tested in triplicate in a single experiment. Antiviral activity was expressed as the percentage of viral inhibition compared to the untreated control and plotted against the compound concentration. Next, non-linear regression analysis was used to calculate the 50% effective concentration (EC50).\n(§2) The miniCD4 conjugates were then evaluated for their antiviral activity on TZM-bl cells that express Luciferase under the control of the HIV LTR (collaboration G. Vanham, Anvers) according to the protocol described above. All antiviral results are reported in the table below in the form of EC50 values (nM)."}, "[2]": {"tested_on": "VI829 viral strain (C-R5)", "experiment": "microbe, parasite or virus in culture", "assay_type": "cell-based, HIV", "settings": "Human immunodeficiency virus 1; TZM-bl cells, luciferase, 48 h; clade-tropism C-R5", "protocol": "as §1, §2"}, "[3]": {"tested_on": "MN viral strain (B-X4)", "experiment": "microbe, parasite or virus in culture", "assay_type": "cell-based, HIV", "settings": "Human immunodeficiency virus 1; TZM-bl cells, luciferase, 48 h; clade-tropism B-X4", "protocol": "as §1, §2"}, "[4]": {"tested_on": "IIIB viral strain (B-X4)", "experiment": "microbe, parasite or virus in culture", "assay_type": "cell-based, HIV", "settings": "Human immunodeficiency virus 1, IIIB; TZM-bl cells, luciferase, 48 h; clade-tropism B-X4", "protocol": "as §1, §2"}, "[5]": {"tested_on": "VI1888 (CRF01) viral strain (AE-R5)", "experiment": "microbe, parasite or virus in culture", "assay_type": "cell-based, HIV", "settings": "Human immunodeficiency virus 1, TZM-bl, 48 h, read-out: EC50, viral strain VI1888 (CRF01)", "protocol": "as §1, §2"}, "[6]": {"tested_on": "MP568 (CRF02) viral strain (AG-R5)", "experiment": "microbe, parasite or virus in culture", "assay_type": "cell-based, HIV", "settings": "Human immunodeficiency virus 1, TZM-bl, 48 h, read-out: EC50, viral strain MP568 (CRF02)", "protocol": "as §1, §2"}, "[7]": {"tested_on": "Bal viral strain (B-R5)", "experiment": "microbe, parasite or virus in culture", "assay_type": "cell-based, HIV", "settings": "Human immunodeficiency virus 1, BAL; TZM-bl cells, luciferase, 48 h; clade-tropism B-R5", "protocol": "as §1, §2"}, "[8]": {"tested_on": "pREJO.c/2864 cl2 viral strain (B-R5)", "experiment": "microbe, parasite or virus in culture", "assay_type": "cell-based, HIV", "settings": "Human immunodeficiency virus 1, TZM-bl, 48 h, read-out: EC50, viral strain pREJO.c/2864 cl2", "protocol": "as §1, §2"}, "[9]": {"tested_on": "SF162 viral strain (B-R5)", "experiment": "microbe, parasite or virus in culture", "assay_type": "cell-based, HIV", "settings": "Human immunodeficiency virus 1; TZM-bl cells, luciferase, 48 h; clade-tropism B-R5", "protocol": "as §1, §2"}, "[10]": {"tested_on": "VI820 viral strain (A-X4R5)", "experiment": "microbe, parasite or virus in culture", "assay_type": "cell-based, HIV", "settings": "Human immunodeficiency virus 1, TZM-bl, 48 h, read-out: EC50, viral strain VI820", "protocol": "as §1, §2"}, "[11]": {"tested_on": "p246F10 viral strain (C-R5)", "experiment": "microbe, parasite or virus in culture", "assay_type": "cell-based, HIV", "settings": "Human immunodeficiency virus 1, TZM-bl, 48 h, read-out: EC50, viral strain p246F10", "protocol": "as §1, §2"}, "[12]": {"tested_on": "VI824 viral strain (D-R5)", "experiment": "microbe, parasite or virus in culture", "assay_type": "cell-based, HIV", "settings": "Human immunodeficiency virus 1, TZM-bl, 48 h, read-out: EC50, viral strain VI824", "protocol": "as §1, §2"}, "[13]": {"tested_on": "Ca10-3 (CRF01) viral strain (AE-X4)", "experiment": "microbe, parasite or virus in culture", "assay_type": "cell-based, HIV", "settings": "Human immunodeficiency virus 1, TZM-bl, 48 h, read-out: EC50, viral strain Ca10-3 (CRF01)", "protocol": "as §1, §2"}, "[14]": {"experiment": "Cytotoxic activity, WST-1 cell proliferation assay", "assay_type": "cell-based", "settings": "human", "protocol": "Cytotoxicity was determined using the water-soluble tetrazolium-1 (WST-1) cell proliferation assay, which is based on the cleavage of the tetrazolium salt WST-1 to a formazan dye by cellular dehydrogenases. Because this bioreduction is dependent on the glycolytic production of NAD(P)H in viable cells, the amount of formazan dye formed is correlated directly to the number of viable cells in a culture. Quantification is performed by measuring absorbance at 450 nm in a multiwell plate reader. An amount of 10^4 cells was plated per well in a 96-well plate, and a serial dilution of compound was added. Forty eight hours later, cell proliferation reagent was added and cell viability was measured compared to untreated control cultures. Cell viability was plotted against the compound concentration, and nonlinear regression analysis was performed to evaluate the 50% cytotoxic concentration (CC50).\nThe miniCD4 conjugates were then evaluated for their cytotoxic activity according to the protocol described above. All cytotoxic results are reported in the table below in the form of CC50 values (nM)."}}}
{"smiles": "Cc1cc(C)c(Nc2ccnc(Nc3ccc(C#N)cc3)n2)c(C)c1", "note": "[Dapivirine (TMC120), Dapivirine]", "values": [{"measurement": "EC50", "setting": "[1]", "value": "> 1000", "unit": "nM"}, {"measurement": "EC50", "setting": "[2]", "value": 1.3, "unit": "nM"}, {"measurement": "EC50", "setting": "[3]", "value": 1.5, "unit": "nM"}, {"measurement": "EC50", "setting": "[4]", "value": 0.84, "unit": "nM"}, {"measurement": "EC50", "setting": "[5]", "value": 2.1, "unit": "nM"}, {"measurement": "EC50", "setting": "[6]", "value": 1.1, "unit": "nM"}, {"measurement": "EC50", "setting": "[7]", "value": 1.65, "unit": "nM"}, {"measurement": "EC50", "setting": "[8]", "value": 1.6, "unit": "nM"}, {"measurement": "EC50", "setting": "[9]", "value": 1.3, "unit": "nM"}, {"measurement": "EC50", "setting": "[10]", "value": 1.95, "unit": "nM"}, {"measurement": "EC50", "setting": "[11]", "value": 1.4, "unit": "nM"}, {"measurement": "EC50", "setting": "[12]", "value": 1.2, "unit": "nM"}, {"measurement": "EC50", "setting": "[13]", "value": 1.3, "unit": "nM"}, {"measurement": "CC50 at 48 h", "setting": "[14]", "value": 2520, "unit": "nM"}]}
